These results are taken from patent US20150030642A1, “POLYMER MICRO-NEEDLE ARRAY CHIP, PREPARATION PROCESS AND USE THEREOF” (Technical Institute of Physics and Chemistry of the Chinese …, priority 2012, published 2015).

For series [1] the following is noted: Journal of Pharmaceutical Sciences, 1998, 87, 922-925; cited from earlier work.
The subject of series [2] is pigskin used for simulated human skin.
Source text: Freezing pigskin used for simulated human skin was thawed; sites of pesticide application were cleaned and disinfected after thawed;

Consider `O=C(O)CN(CC(=O)O)Cc1cc2c(cc1O)Oc1cc(O)c(CN(CC(=O)O)CC(=O)O)cc1C21OC(=O)c2ccccc21` [calcein], for which, in series [1], the “transdermal permeability speed, micro-needle versus traditional transdermal drug delivery” value is reported as “increased by four orders of magnitude”.

On to bovine serum albumin, for which, in series [2], the penetration of skin entry was “could penetrate the skin”.
